pIC50: −log10 of the molar value.
What follows are compounds tested against T1, human NaV1.8 (Homo sapiens, UniProt Q9Y5Y9) (assay: Nav1.8 Qube® Assay (automated 384-well patch-clamp, inhibition of sodium current)). Conditions: human NaV1.8 channels stably expressed in HEK 293 cells, room temperature.
T1 construct: expressed in transfected cells
Type: cell-based
Procedure, shortened: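 Whole-cell voltage clamp at room temperature in HEK293 cells stably expressing NaV1.8; from −90 mV hold, 10 s 1 Hz train of 20 ms pulses to 10 mV with 980 ms repolarization to −67 mV. Peak currents of 1st and 10th pulses give resting and inactivated-state IC50s, Hill fit.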

T1 sequence (Q9Y5Y9 whole entry): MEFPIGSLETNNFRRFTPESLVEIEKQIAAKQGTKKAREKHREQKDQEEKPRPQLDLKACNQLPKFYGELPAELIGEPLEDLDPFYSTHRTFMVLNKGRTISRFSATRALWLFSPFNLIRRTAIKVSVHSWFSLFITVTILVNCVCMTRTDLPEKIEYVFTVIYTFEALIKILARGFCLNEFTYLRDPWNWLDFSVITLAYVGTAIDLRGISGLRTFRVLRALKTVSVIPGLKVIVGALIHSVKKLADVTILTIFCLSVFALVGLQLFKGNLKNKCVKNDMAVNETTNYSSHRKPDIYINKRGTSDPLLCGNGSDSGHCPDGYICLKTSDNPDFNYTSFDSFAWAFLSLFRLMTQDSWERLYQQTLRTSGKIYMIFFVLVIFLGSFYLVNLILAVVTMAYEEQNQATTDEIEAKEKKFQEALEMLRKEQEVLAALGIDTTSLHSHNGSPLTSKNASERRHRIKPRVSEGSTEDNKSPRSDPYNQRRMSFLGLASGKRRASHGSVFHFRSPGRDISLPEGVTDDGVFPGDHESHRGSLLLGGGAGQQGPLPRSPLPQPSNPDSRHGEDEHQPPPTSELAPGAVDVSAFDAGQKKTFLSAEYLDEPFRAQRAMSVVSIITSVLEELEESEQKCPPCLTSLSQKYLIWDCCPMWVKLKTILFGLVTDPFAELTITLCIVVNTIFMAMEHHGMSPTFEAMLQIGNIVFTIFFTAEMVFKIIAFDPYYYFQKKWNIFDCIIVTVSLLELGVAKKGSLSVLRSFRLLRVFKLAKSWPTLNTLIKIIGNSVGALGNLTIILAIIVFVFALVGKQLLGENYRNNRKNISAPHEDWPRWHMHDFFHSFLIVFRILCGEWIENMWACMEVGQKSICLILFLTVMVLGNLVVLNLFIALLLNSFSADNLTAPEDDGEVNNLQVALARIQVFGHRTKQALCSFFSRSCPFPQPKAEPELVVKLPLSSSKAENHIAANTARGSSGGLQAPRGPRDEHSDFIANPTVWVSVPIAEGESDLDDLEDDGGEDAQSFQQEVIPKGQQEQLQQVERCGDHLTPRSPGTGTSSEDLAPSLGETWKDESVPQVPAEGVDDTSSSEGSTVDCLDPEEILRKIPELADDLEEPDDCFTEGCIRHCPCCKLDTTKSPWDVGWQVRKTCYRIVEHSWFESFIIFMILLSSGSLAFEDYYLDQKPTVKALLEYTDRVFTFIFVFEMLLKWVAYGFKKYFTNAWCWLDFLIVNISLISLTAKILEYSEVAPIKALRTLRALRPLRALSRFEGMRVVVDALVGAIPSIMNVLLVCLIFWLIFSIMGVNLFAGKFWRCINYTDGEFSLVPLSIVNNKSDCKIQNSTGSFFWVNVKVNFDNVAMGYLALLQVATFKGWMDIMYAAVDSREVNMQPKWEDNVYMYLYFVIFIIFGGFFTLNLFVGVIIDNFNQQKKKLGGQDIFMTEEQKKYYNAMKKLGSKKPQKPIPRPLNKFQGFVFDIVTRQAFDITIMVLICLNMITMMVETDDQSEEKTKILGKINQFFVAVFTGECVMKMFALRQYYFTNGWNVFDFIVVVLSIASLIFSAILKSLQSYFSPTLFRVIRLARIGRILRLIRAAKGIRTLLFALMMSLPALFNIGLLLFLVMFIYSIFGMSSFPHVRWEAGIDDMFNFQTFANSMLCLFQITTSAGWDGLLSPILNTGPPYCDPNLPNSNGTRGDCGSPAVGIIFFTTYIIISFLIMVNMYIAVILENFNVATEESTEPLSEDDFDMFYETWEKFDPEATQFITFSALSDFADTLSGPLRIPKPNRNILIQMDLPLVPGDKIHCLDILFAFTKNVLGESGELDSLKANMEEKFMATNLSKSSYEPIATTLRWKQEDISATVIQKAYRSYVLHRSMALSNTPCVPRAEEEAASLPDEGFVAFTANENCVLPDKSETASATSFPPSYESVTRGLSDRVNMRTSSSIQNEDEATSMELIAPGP

| Compound | pIC50 |
| --- | --- |
| C[C@@H]1C(=O)NCCN1C(=O)NC(c1ccc(F)c(Cl)c1F)C1CC2(C1)CC2(F)F (single isomer, unassigned) [Example 22D, (2R)-N-((So or R)-(3-chloro-2,4-difluoro-phenyl)(cis or trans-1,1-difluoro-spiro[2.3]-hexan-5-yl)methyl)-2-methyl-3-oxopiperazine-1-carboxamide] | 7.07 |
| C[C@@H]1C(=O)NCCN1C(=O)NC(c1ccc(F)c(Cl)c1F)C1CC2(C1)CC(F)(F)C2 (single isomer, unassigned) [Example 23, (2R)-N-((R or S)-(3-chloro-2,4-difluoro-phenyl)(6,6-difluoro-spiro[3.3]heptan-2-yl)methyl)-2-methyl-3-oxopiperazine-1-carboxamide] | 8.94 |
| C[C@@H]1C(=O)NCCN1C(=O)NC(c1ccc(F)c(Cl)c1F)C1CC(F)(F)C1 (single isomer, unassigned) [Example 24A, (2R)-N-((R or S)-(3-chloro-2,4-difluoro-phenyl)(3,3-difluoro-cyclobutyl)methyl)-2-methyl-3-oxopiperazine-1-carboxamide] | 5.58 |
| C[C@@H]1C(=O)NCCN1C(=O)NC(c1ccc(F)c(Cl)c1F)C1CC(F)(F)C1 (single isomer, unassigned) [Example 24B, (2R)-N-((S or R)-(3-chloro-2,4-difluoro-phenyl)(3,3-difluoro-cyclobutyl)methyl)-2-methyl-3-oxopiperazine-1-carboxamide] | 7.54 |
| C=C1CC(C(NC(=O)N2CCNC(=O)[C@H]2C)c2ccc(F)c(Cl)c2F)C1 (single isomer, unassigned) [Example 25A, (2R)-N-((R or S)-(3-chloro-2,4-difluoro-phenyl)(3-methylene-cyclobutyl)methyl)-2-methyl-3-oxopiperazine-1-carboxamide] | 7.98 |
| C=C1CC(C(NC(=O)N2CCNC(=O)[C@H]2C)c2ccc(F)c(Cl)c2F)C1 (single isomer, unassigned) [Example 25B, (2R)-N-((S or R)-(3-chloro-2,4-difluoro-phenyl)(3-methylene-scyclobutyl)methyl)-2-methyl-3-oxopiperazine-1-carboxamide] | 6.19 |
| O=C1NCCN(C(=O)N[C@H](c2ccc(F)c(Cl)c2F)[C@H]2C[C@H](C(F)(F)F)C2)C1C1CC1 (single isomer, unassigned) [Example 27A, (R or S)—N—((S)-(3-chloro-2,4-difluorophenyl)(trans-3-(trifluoromethyl)cyclobutyl)methyl)-2-cyclopropyl-3-oxopiperazine-1-carboxamide] | 9.10 |
| O=C1NCCN(C(=O)N[C@H](c2ccc(F)c(Cl)c2F)[C@H]2C[C@H](C(F)(F)F)C2)C1C1CC1 (single isomer, unassigned) [Example 27B, (S or R)—N—((S)-(3-chloro-2,4-difluorophenyl)(trans-3-(trifluoromethyl)cyclobutyl)methyl)-2-cyclopropyl-3-oxopiperazine-1-carboxamide] | 6.97 |
| C[C@@H]1C(=O)NCCN1C(=O)NC(c1ccc(F)c(Cl)c1F)C1CC2(CC2)C1 (single isomer, unassigned) [Example 28A, (2R)—N—((R or S)-(3-chloro-2,4-difluorophenyl)(spiro[2.3]hexan-5-yl)methyl)-2-methyl-3-oxopiperazine-1-carboxamide] | 8.58 |
| C[C@@H]1C(=O)NCCN1C(=O)NC(c1ccc(F)c(Cl)c1F)C1CC2(CC2)C1 (single isomer, unassigned) [Example 28B, (2R)—N—((S or R)-(3-chloro-2,4-difluorophenyl)(spiro[2.3]hexan-5-yl)methyl)-2-methyl-3-oxopiperazine-1-carboxamide] | 6.72 |
| C[C@@H]1C(=O)NCCN1C(=O)NC(c1ccc(F)c(Cl)c1F)[C@H]1C[C@H](C(F)F)C1 (single isomer, unassigned) [Example 29A] | 8.05 |
| C[C@@H]1C(=O)NCCN1C(=O)NC(c1ccc(F)c(Cl)c1F)[C@H]1C[C@H](C(F)F)C1 (single isomer, unassigned) [Example 29B] | 7.18 |
| C[C@@H]1C(=O)NCCN1C(=O)NC(c1ccc(F)c(Cl)c1F)C12CC(C(F)(F)F)(C1)C2 (single isomer, unassigned) [Example 30A] | 6.55 |
| C[C@@H]1C(=O)NCCN1C(=O)NC(c1ccc(F)c(Cl)c1F)C12CC(C(F)(F)F)(C1)C2 (single isomer, unassigned) [Example 30B] | 8.51 |
| C[C@@H]1C(=O)NCCN1C(=O)NC(c1ccc(F)c(Cl)c1F)C1CC(C)(C)C1 (single isomer, unassigned) [Example 31A, (2R)-N-((R or S)-(3-chloro-2,4-difluoro-phenyl)(3,3-dimethyl-cyclobutyl)methyl)-2-methyl-3-oxopiperazine-1-carboxamide] | 9.13 |
| C[C@@H]1C(=O)NCCN1C(=O)NC(c1ccc(F)c(Cl)c1F)C1CC(C)(C)C1 (single isomer, unassigned) [Example 31B, (2R)-N-((S or R)-(3-chloro-2,4-difluoro-phenyl)(3,3-dimethyl-cyclobutyl)methyl)-2-methyl-3-oxopiperazine-1-carboxamide] | 7.15 |
| C[C@@H]1C(=O)NCCN1C(=O)NC(c1ccc(C(F)(F)F)nc1)C1CC(C)(C)C1 (single isomer, unassigned) [Example 33A, (2R)-N-((R or S)-(3,3-dimethylcyclobutyl)(6-(trifluoromethyl)pyridin-3-yl)methyl)-2-methyl-3-oxopiperazine-1-carboxamide] | 6.87 |
| C[C@@H]1C(=O)NCCN1C(=O)NC(c1ccc(C(F)(F)F)nc1)C1CC(C)(C)C1 (single isomer, unassigned) [Example 33B, (2R)-N-((S or R)-(3,3-dimethylcyclobutyl)(6-(trifluoromethyl)pyridin-3-yl)methyl)-2-methyl-3-oxopiperazine-1-carboxamide] | 5.45 |
| O=C1CN(C(=O)NC(c2ccc(F)c(Cl)c2)C23CC(C(F)(F)F)(C2)C3)CCN1 (single isomer, unassigned) [Example 34A, N-((R or S)-(3-chloro-4-fluorophenyl)(3-(trifluoromethyl)bicyclo [1.1.1]pentan-1-yl)methyl)-3-oxopiperazine-1-carboxamide] | 6.22 |
| O=C1CN(C(=O)NC(c2ccc(F)c(Cl)c2)C23CC(C(F)(F)F)(C2)C3)CCN1 (single isomer, unassigned) [Example 34B, N-((S or R)-(3-chloro-4-fluorophenyl)(3-(trifluoromethyl)bicyclo [1.1.1]pentan-1-yl)methyl)-3-oxopiperazine-1-carboxamide] | 7.33 |
| C[C@@H]1C(=O)NCCN1C(=O)NC(c1ccc(F)c(Cl)c1)C12CC(C(F)(F)F)(C1)C2 (single isomer, unassigned) [Example 35A, (2R)-N-((R or S)-(3-chloro-4-fluoro-phenyl)(3-(trifluoro-methyl)bicyclo[1.1.1]pen-tan-1-yl)methyl)-2-methyl-3-oxopiperazine-1-carboxamide] | 8.22 |
| C[C@@H]1C(=O)NCCN1C(=O)NC(c1ccc(F)c(Cl)c1)C12CC(C(F)(F)F)(C1)C2 (single isomer, unassigned) [Example 35B, (2R)-N-((S or R)-(3-chloro-4-fluoro-phenyl)(3-(trifluoro-methyl)bicyclo[1.1.1]pen-tan-1-yl)methyl)-2-methyl-3-oxopiperazine-1-carboxamide] | 7.31 |

Second part, the compound after the results:

| pIC50 | Compound |
| --- | --- |
| 7.25 | Cc1cc(C(NC(=O)N2CCNC(=O)[C@H]2C)C2CCC(C(F)(F)F)CC2)ccc1F (single isomer, unassigned) [Example 36A] |
| 7.13 | Cc1cc(C(NC(=O)N2CCNC(=O)[C@H]2C)C2CCC(C(F)(F)F)CC2)ccc1F (single isomer, unassigned) [Example 36B] |
| 7.24 | Cc1cc(C(NC(=O)N2CCNC(=O)[C@H]2C)C2CCC(C(F)(F)F)CC2)ccc1F (single isomer, unassigned) [Example 36C] |
| 8.40 | Cc1cc(C(NC(=O)N2CCNC(=O)[C@H]2C)C2CCC(C(F)(F)F)CC2)ccc1F (single isomer, unassigned) [Example 36D] |
| 6.96 | C[C@@H]1C(=O)NCCN1C(=O)NC(c1ccc(Cl)c(C(F)F)c1)C1CCC(C(F)(F)F)CC1 (single isomer, unassigned) [Example 37A, (2R)-N-((R or S)-(4-chloro-3-(difluoro-methyl)phenyl)(cis-4-(trifluoromethyl)cyclohexyl)methyl)-2-methyl-3-oxopiperazine-1-carboxamide] |
| 6.84 | C[C@@H]1C(=O)NCCN1C(=O)NC(c1ccc(Cl)c(C(F)F)c1)C1CCC(C(F)(F)F)CC1 (single isomer, unassigned) [Example 37B, (2R)-N-((R or S)-(4-chloro-3-(difluoro-methyl)phenyl)(trans-4-(trifluoromethyl)cyclohexyl)methyl)-2-methyl-3-oxopiperazine-1-carboxamide] |
| 7.57 | C[C@@H]1C(=O)NCCN1C(=O)NC(c1ccc(Cl)c(C(F)F)c1)C1CCC(C(F)(F)F)CC1 (single isomer, unassigned) [Example 37C, (2R)-N-((S or R)-(4-chloro-3-(difluoro-methyl)phenyl)(cis-4-(trifluoromethyl)cyclohexyl)methyl)-2-methyl-3-oxopiperazine-1-carboxamide] |
| 8.70 | C[C@@H]1C(=O)NCCN1C(=O)NC(c1ccc(Cl)c(C(F)F)c1)C1CCC(C(F)(F)F)CC1 (single isomer, unassigned) [Example 37D, (2R)-N-((S or R)-(4-chloro-3-(difluoro-methyl)phenyl)(trans-4-(trifluoromethyl)cyclohexyl)methyl)-2-methyl-3-oxopiperazine-1-carboxamide] |
| 6.84 | C[C@@H]1C(=O)NCCN1C(=O)NC(c1ccc(F)c(Cl)c1)C1CC(OC(F)F)C1 (single isomer, unassigned) [Example 38A, (2R)-N-((R or S)-(3-chloro-4-fluoro-phenyl)-(trans-3-(difluoro-methoxy)cyclobutyl)-methyl)-2-methyl-3-oxopiperazine-1-carboxamide] |

Reference: patent US20220380338A1, “CYCLOALKYL 3-OXOPIPERAZINE CARBOXAMIDES AND CYCLOHETEROALKYL 3-OXOPIPERAZINE CARBOXAMIDES AS NAV1.8 INHIBITORS” (Merck Sharp & Dohme LLC, priority 2021, published 2022)
